Laboratory results taken from patent US20140107062A1, “COMPOSITIONS AND METHODS FOR TREATING OR PREVENTING DISEASES OF BODY PASSAGEWAYS” (Aravasc Inc., priority 2007, published 2014).
In brackets after ≈: the same amount, converted by molar mass. Several values for one entry are separate records, joined by “and”; a condition that tells them apart may be missing. Equal entries are not always repeated. Where two headings read alike, the source gives them in different places.

Key:
[1] = Drug distribution 28-day PK study in naïve mice implanted with ETDS; type: in vivo; settings: for Distribution of drugs from the implants in vivo: subcutaneous ETDS implants in mice
Protocol: An in vivo 28-day PK and drug distribution studies was conducted to understand drug distribution and the release profile/duration of drug-released from the different ETDS.
Nine mice were subcutaneously implanted with the same ETDS as implanted in the efficacy study. […] […] Three animals were terminated at each of these time points. Drug distribution in the plasma and skin tissue was analyzed by LC-MS. The preclinical stents were explanted and assayed for residual drug.

[2] = Drug levels in tumor-bearing mice at efficacy study termination; type: in vivo; settings: for Drug Exposure, Tumor Tissue / Drug Exposure, Plasma: efficacy study; for Drug Exposure, Tumor Tissue: day 28-47; for Drug Exposure, Plasma: day 28-47, n = 8; for Explanted ETDS (Residual - efficacy): n = 3, ETDS 125 ± 25 ug total drug (1:1)
Protocol: The fast release mini-ETDS ensured the highest dose delivery. Coated or uncoated fast release preclinical ETDS were implanted in contact with tumor (300 mm^3), 14 days after inoculation of human esophageal-gastric cancer line NUGC4-GFP into nude mice. Tumor growth inhibition was evaluated over 47 day period post-implantation (FIG. 24). […] The projected in vivo dose/day based on an assumption of constant release after the initial ‘burst-effect’, is about 0.45 mg/kg/day.
A drug-dye distribution study was conducted in naïve mice. Plasma, skin tissue at implant site and skin tissue at contralateral site was sampled at defined intervals ranging from 2 hours-28 days. Similarly, plasma and tumor tissue was sampled at efficacy study termination at either 28 or […] days post implantation.
Drug-dye exposure levels in each of these biological samples was quantitated by LC-MS to obtain correlations between efficacious levels of exposure and release profile in naïve mice.
The LCMS analysis was conducted using validated bioanalytical methods discussed below except for HCFU. […] Samples were processed and analyzed immediately. Values may be underestimated.

[3] = Stability of ICG and HCFU (pH, dissolution media, ETDS product); type: physicochemical
Text: A suboptimal pH (4) for the dissomedia was chosen to preserve both and simultaneously quantitate them as they eluted.
A suboptimal but workable pH 4 was chosen to evaluate the release profile.

[4] = Solubility of analytes and polymer in solvents, dissolution media and water; type: physicochemical
[5] = under physiological conditions and under acidic conditions (pH<4); cited from earlier work
[6] = cited from earlier work
[7] = Rat in situ intra-tracheal infusion of THX-polymer formulation; type: in vivo; settings: 8 mg/kg
Protocol: A pilot study of in situ intra-tracheal infusion was performed to estimate tracheal and lung tissue levels after in situ intra-tracheal infusion of THX-polymer formulation.
Two rats (immediately after termination) were intra-tracheally infused over 30 mins with a THX-polymer formulation. The dose was 8 mg/kg and volume was 200 μl. After infusion these were wrapped for 2 hours in a warm heating pad. Tracheo-bronchial and lung tissue were harvested after wiping the lumen area of the tracheo-bronchial lumen with a tissue and spatula (to take off any adsorbed drug) at the end of 2 hours. Samples were frozen at −80 C until processed and analyzed by LC-MS. Sample extraction was conducted at AraVasc Inc. The processed samples were analyzed at Alta Analytical laboratories by LC-MS.
(§1) The equipment used was a SCIEX PE 3000.
(§2) The supernatant extract was subject to LCMS analysis.

[8] = administered systemically; cited from earlier work
in vivo = settings: rat
Text: The animals were anesthetized while dosing. […] Samples were frozen until processed for LC-MS analysis.
as §1, §2

liver and lung cancer = settings: preliminary reports, clinical trials; cited from earlier work
[9] = DMF, organic solvent or mixture, read-out: Solubility
[10] = DMSO, organic solvent or mixture, read-out: Solubility
[11] = THF, organic solvent or mixture, read-out: Solubility
[12] = acetonitrile, organic solvent or mixture, read-out: Solubility
[13] = dissolution media, read-out: Solubility
[14] = Day 4, FR ETDS, individual mice
[15] = Day 4, fast release (FR) ETDS, individual mice
[16] = Day 7, FR ETDS, individual mice
[17] = Day 14, FR ETDS, individual mice
[18] = Day 28, FR ETDS, individual mice
[19] = mouse, plasma, subcutaneous, Day 28, FR ETDS, individual mice, read-out: Plasma Conc.
[20] = mouse, skin tissue at implantation site, subcutaneous, Day 14, FR ETDS, individual mice, read-out: Tissue Conc. site of implant
[21] = mouse, skin tissue at implantation site, subcutaneous, Day 28, FR ETDS, individual mice, read-out: Tissue Conc. site of implant
[22] = 200 μl, infused over 30 mins, harvested at 2 hours, individual rats

CCCCCCNC(=O)n1cc(F)c(=O)[nH]c1=O [HCFU, Carmofur]
concentration at 28 day ([1]; mouse, plasma, subcutaneous, HCFU, naïve mice, day 28, n = 3, read-out: Drug Exposure, Plasma): 48.2 ng/mL | concentration at 28 day ([1]; mouse, subcutaneous tissue, subcutaneous, HCFU, naïve mice, day 28, n = 3, read-out: Drug Exposure, Subcutaneous Tissue): 43.3 ng/mL | Drug Exposure, Tumor Tissue ([2]; HCFU): 54.1 ng/mL | Drug Exposure, Plasma ([2]; HCFU, tumor-bearing mice): 59 ng/mL and 58.97 ng/mL | Tumor tissue exposure at steady state, average ([2]; HCFU, termination day 28-47): 54 ng/gm | Explanted ETDS (Residual - efficacy) [2]: 2.1 µg | Stability in the dissolution media ([3]; pH>3): unstable | Stability ([3]; pH>4): not stable | Stability ([3]; physiological pH): limited stability | solubility [4, 9]: > 50 mg/mL | solubility [4, 10]: > 50 mg/mL | solubility [4, 11]: > 50 mg/mL | solubility [4, 12]: > 0.4 mg/mL | solubility [4, 13]: 0.05 to 0.06 mg/mL (≈ 0.194 to 0.233 mM) | solubility ([4]; water, read-out: Solubility): 0.02 to 0.03 mg/mL (≈ 0.0777 to 0.117 mM)

CC1(C)C(/C=C/C=C/C=C/C=C2\N(CCCCS(=O)(=O)O)c3ccc4ccccc4c3C2(C)C)=[N+](CCCCS(=O)(=O)[O-])c2ccc3ccccc3c21 [ICG, Indocyanine green]
Tissue Conc. site of implant [1, 14]: 15.3 ng/g and 32.4 ng/g and 20.9 ng/g | Plasma Conc. [1, 15]: 2.39 ng/mL and 3.76 ng/mL | Plasma Conc. [1, 16]: 3.23 ng/mL and 0 ng/mL and 2.26 ng/mL | Tissue Conc. site of implant [1, 16]: 13.2 ng/g and 12.4 ng/g and 35.9 ng/g | Plasma Conc. [1, 17]: 2.23 ng/mL and 0 ng/mL (2×) | Tissue Conc. site of implant [1, 17]: 13.1 ng/g and 14 ng/g | Plasma Conc. [1, 18]: 2.24 ng/mL and 2.26 ng/mL | Tissue Conc. site of implant [1, 18]: 11.8 ng/g and 11.9 ng/g | concentration at 4 day ([1]; mouse, plasma, subcutaneous, Day 4, fast release (FR) ETDS, individual mice, read-out: Plasma Conc.): 3.89 ng/mL | concentration at 28 day [1, 19]: 2.39 ng/mL | concentration at 14 day [1, 20]: 12.2 ng/g | concentration at 28 day [1, 21]: 12.1 ng/g | Distribution of drugs from the implants in vivo [1]: remained confined to the site of implantation | half life t1/2 [5]: < 2 min | Stability ([3]; acidic pH<4): not stable | Stability in the dissolution media ([3]; pH<3): unstable | in-vivo protein binding [6]: about 95%

O=C1CCC(N2C(=O)c3ccccc3C2=O)C(=O)N1 (racemic) [THX, 2-(2,6-dioxo-3-piperidinyl)-1H-isoindole-1,3(2H)-dione]
Tissue Levels Lung [7, 22]: 0.75 μg/100 mg and 0.58 μg/100 mg | Tissue Levels Trachea [7, 22]: 211.21 μg/100 mg and 290.36 μg/100 mg | THX levels in tracheo-bronchial and lung tissue ([7]; in situ infusion (0.5 hr)): High levels | concentration at 2 h ([7]; rat, lung, other: in situ intra-tracheal infusion, 200 μl, infused over 30 mins, harvested at 2 hours, individual rats, read-out: Tissue Levels Lung): 5800 ng/g | pulmonary toxicities [8]: No pulmonary toxicities | Tissue Conc. site of implant [1, 14]: 387 ng/g and 338 ng/g and 6410 ng/g | Plasma Conc. [1, 15]: 0.95 ng/mL and 3.26 ng/mL and 0.00 ng/mL | Plasma Conc. [1, 16]: 7.27 ng/mL and 9.27 ng/mL | Tissue Conc. site of implant [1, 16]: 22.5 ng/g and 66.5 ng/g and 18.4 ng/g | Plasma Conc. [1, 17]: 2.26 ng/mL and 7.55 ng/mL | Tissue Conc. site of implant [1, 17]: 15.9 ng/g and 16.8 ng/g | Plasma Conc. [1, 18]: 13.7 ng/mL and 7.79 ng/mL | Tissue Conc. site of implant [1, 18]: 20.2 ng/g and 34.0 ng/g and 15.8 ng/g | concentration at 7 day ([1]; mouse, plasma, subcutaneous, Day 7, FR ETDS, individual mice, read-out: Plasma Conc.): 5.42 ng/mL | concentration at 28 day [1, 19]: 9.03 ng/mL | concentration at 14 day [1, 20]: 30.9 ng/g | concentration at 20 min (in vivo; 4 mg/Kg): 190 ng/mL | concentration at 40 min (in vivo; 4 mg/Kg): 440 ng/mL | THX levels in lung tissue (in vivo; 12 mg/kg): High levels | THX levels in plasma (in vivo; 12 mg/kg): low levels | disease control rates (liver and lung cancer): 8%-57% | response rates (liver and lung cancer): 4%-10% | solubility [4, 9]: 75.5 mg/mL (≈ 292 mM) | solubility [4, 10]: 56 mg/mL (≈ 217 mM) | solubility [4, 11]: 3.34 mg/mL (≈ 12.9 mM) | solubility [4, 12]: 0.79 mg/mL (≈ 3.06 mM) | solubility [4, 13]: 3.34 mg/mL (≈ 12.9 mM) | solubility ([4]; water, read-out: Solubility): 1.5 mg/mL (≈ 5.81 mM)

O=c1[nH]cc(F)c(=O)[nH]1 [FLX, 5-fluorouracil]
Distribution of drugs from the implants in vivo [1]: High levels | solubility [4, 9]: 45.8 mg/mL (≈ 352 mM) | solubility [4, 10]: 59 mg/mL (≈ 454 mM) | solubility [4, 11]: 42.1 mg/mL (≈ 324 mM) | solubility [4, 12]: 1.81 mg/mL (≈ 13.9 mM) | solubility [4, 13]: 42.1 mg/mL (≈ 324 mM) | solubility ([4]; water, read-out: Solubility): > 20 mg/mL

CCCCCOC(=O)Nc1nc(=O)n([C@@H]2O[C@H](C)[C@@H](O)[C@H]2O)cc1F [CPX, Capecitabine]
solubility [4, 9]: > 50 mg/mL | solubility [4, 10]: > 50 mg/mL | solubility [4, 11]: > 50 mg/mL | solubility [4, 12]: > 0.4 mg/mL | solubility [4, 13]: > 10 mg/mL | solubility ([4]; water, read-out: Solubility): > 10 mg/mL

CC(=O)O[C@H]1C(=O)[C@@]2(C)[C@H]([C@H](OC(=O)c3ccccc3)[C@]3(O)C[C@H](OC(=O)[C@H](O)[C@@H](NC(=O)c4ccccc4)c4ccccc4)C(C)=C1C3(C)C)[C@]1(OC(C)=O)CO[C@@H]1C[C@@H]2O [PTX, Paclitaxel]
pulmonary toxicities [8]: No pulmonary toxicities | Tissue Conc. site of implant [1, 14]: 18000 ng/g and 6270 ng/g and 6990 ng/g | Plasma Conc. [1, 15]: BLOQ | Plasma Conc. [1, 16]: BLOQ | Tissue Conc. site of implant [1, 16]: 22000 ng/g and 10300 ng/g and 47000 ng/g | Plasma Conc. [1, 17]: BLOQ | Tissue Conc. site of implant [1, 17]: 16500 ng/g and 10400 ng/g and 21600 ng/g | Explanted ETDS Conc. (residual drug) ([1]; Day 14 explanted FR ETDS): 12.30 µg and 14.82 µg and 15.13 µg | Plasma Conc. [1, 18]: BLOQ | Tissue Conc. site of implant [1, 18]: 12800 ng/g and 10600 ng/g | Drug Exposure, Plasma ([1]; PTX, naïve mice, day 28, n = 3): BLOQ | concentration at 28 day [1, 21]: 18900 ng/g | concentration at 28 day ([1]; mouse, subcutaneous tissue, subcutaneous, PTX, naïve mice, day 28, n = 3, read-out: Drug Exposure, Subcutaneous Tissue): 12100 ng/g | Drug Exposure, Tumor Tissue ([2]; PTX): 9,668 ng/gm | Drug Exposure, Plasma ([2]; PTX, tumor-bearing mice): 1.53 ng/gm | Average levels detected in plasma ([2]; PTX, tumor-bearing mice): 1.5 ng/mL | Explanted ETDS (Residual - efficacy) [2]: 15.4 µg | solubility [4, 9]: 154 mg/mL (≈ 181 mM) | solubility [4, 10]: 27.2 mg/mL (≈ 31.9 mM) | solubility ([4]; THF): 41.7 mg/mL (≈ 48.8 mM) | solubility [4, 12]: 44.3 mg/mL (≈ 51.9 mM) | solubility [4, 13]: 0.05 to 0.06 mg/mL (≈ 0.0586 to 0.0703 mM) | solubility ([4]; water, read-out: Solubility): > 20 mg/mL
